Data on 32 compounds can be found in patent US20140288071A1, “INHIBITORS OF NOTUM […] AND METHODS OF THEIR USE” (priority 2011, published 2014).

Each structure is given as a SMILES string. pEC50, pIC50: −log10 of the molar value.

The pIC50 is the negative decadic logarithm of the IC50, by convention in mol/L. Low readings indicate a high IC50, high ones a low IC50. For orientation: pEC50 means the negative decadic logarithm of the EC50, by convention in mol/L. Read a high pEC50 as a low EC50.

For assay [1], the target named is T1, human notum pectinacetyltransferase (Homo sapiens, UniProt Q6P988).
T1 construct: made in house; conditioned medium used
T1 sequence (Q6P988 20-496): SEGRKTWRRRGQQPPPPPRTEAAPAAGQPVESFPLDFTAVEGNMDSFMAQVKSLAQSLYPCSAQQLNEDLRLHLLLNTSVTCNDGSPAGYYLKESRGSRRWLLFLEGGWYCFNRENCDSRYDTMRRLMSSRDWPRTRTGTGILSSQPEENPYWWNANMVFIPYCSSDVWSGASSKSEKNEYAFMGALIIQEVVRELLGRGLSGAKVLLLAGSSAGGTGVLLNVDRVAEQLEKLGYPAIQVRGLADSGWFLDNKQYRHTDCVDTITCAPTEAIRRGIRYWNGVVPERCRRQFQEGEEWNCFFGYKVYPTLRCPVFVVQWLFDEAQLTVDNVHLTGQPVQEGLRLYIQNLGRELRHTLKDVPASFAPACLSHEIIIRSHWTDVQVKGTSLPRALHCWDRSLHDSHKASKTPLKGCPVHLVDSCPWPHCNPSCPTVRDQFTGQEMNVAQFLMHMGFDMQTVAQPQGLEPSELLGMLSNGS
The experiment in a line: Binding assay (OPTS esterase substrate, fluorimetric). It counts as biochemical. The following applies: OPTS substrate 5 μM. As for the experimental part:
Plasmid containing human notum pectinacetyltransferase in pcDNA3.1(+) vector was transfected into HEK293 cells and clones were selecting by growing in presence of 400 ug/mL of G418. Condition media from these cells was used for the assay.

Assay [2] concerns the target T1, human notum pectinacetyltransferase. Description: Reporter assay (CellSensor LEF/TCF-bla FreeStyle 293F cells, Wnt3a and notum conditioned media). It counts as cell-based. As for the experimental part: Plasmid containing human notum pectinacetyltransferase in pcDNA3.1(+) vector was transfected into HEK293 cells and clones were selecting by growing in presence of 400 ug/mL of G418. […] L cells overexpressing and secreting Wnt3a into the conditioned media were purchased from ATCC.
The assay protocol was as follows. […] The cell growth medium consisted of DMEM with 10% Dialyzed FBS, 5 μg/ml Blasticidin (Invitrogen, R210-01), 0.1 mM NEAA, 25 mM HEPES and 1×GPS. Cells were then trypsinized by first rinsing with PBS, followed by addition of 5 mL of trypsin and incubation of plates at room temperature for two minutes. A total of 10 mL of assay media (Opti-MEM, plus 0.5% dialyzed FBS, 0.1 mM NEAA, 1 mM sodium pyruvate, 10 mM HEPES, 1×GPS) was then added per 15 cm plate. Cells were counted and suspended at 0.75 million cells per mL. […] After incubation of cells at 37° C. for 3 hours, 10 μL of 30 mM LiCl in assay medium was added per well, followed by incubation at 37° C. for another 3 hours. […] Ten μL of the Wnt3a/notum pentinacetyltransferase mixture was then transferred from Greiner plates to each well of the 384-well plates containing the CellSensor cells. After incubation of cells overnight at 37° C., reactions were developed by addition of […] of 1×CCF4 (Invitrogen, Catalogue number K1085) to each well, covering the entire 384-well plate, and gentle rocking in the dark at room temperature for 3 hours.

`CON(C)C(=O)CSc1ncnc2sc(C)c(C)c12` [2-((5,6-dimethylthieno[2,3-d]pyrimidin-4-yl)thio)-N-methoxy-N-methylacetamide] showed a pIC50 in assay [1] greater than 7.60. The pEC50 in assay [2] was greater than 6.00.

`CNC(=O)CSc1ncnc2sc(C)c(C)c12` [2-((5,6-dimethylthieno[2,3-d]pyrimidin-4-yl)thio)-N-methylacetamide] gave a pIC50 in assay [1] greater than 7.60. This compound had a pEC50 in assay [2] greater than 6.00.

`Cc1sc2ncnc(SCC(N)=O)c2c1C` [2-((5,6-dimethylthieno[2,3-d]pyrimidin-4-yl)thio)acetamide]: the negative-log IC50 (pIC50) in assay [1] is greater than 7.60. This compound also had a negative-log EC50 (pEC50) in assay [2] greater than 6.00.

On to `CCc1sc2ncnc(SCC(=O)O)c2c1Br` [2-((5-bromo-6-ethylthieno[2,3-d]pyrimidin-4-yl)thio)acetic acid], for which the pIC50 in assay [1] was greater than 7.60. In assay [2], this compound showed a pEC50 greater than 6.00.

`CC(C)c1sc2ncnc(SCC(=O)O)c2c1Br` [2-((5-bromo-6-isopropylthieno[2,3-d]pyrimidin-4-yl)thio)acetic acid] had a pIC50 in assay [1] greater than 7.60. This compound had a negative-log EC50 (pEC50) in assay [2] greater than 6.00.

`Cc1sc2ncnc(SCC(=O)O)c2c1Br` [2-((5-bromo-6-methylthieno[2,3-d]pyrimidin-4-yl)thio)acetic acid]: the negative logarithm of the IC50 (pIC50) in assay [1] was greater than 7.60. Besides, the negative logarithm of the EC50 (pEC50) in assay [2] was greater than 6.00.

In assay [1], `CCc1sc2ncnc(SCC(=O)O)c2c1Cl` [2-((5-chloro-6-ethylthieno[2,3-d]pyrimidin-4-yl)thio)acetic acid] gave a pIC50 greater than 7.60. Also, the pEC50 in assay [2] was greater than 6.00.

As for `Cc1sc2ncnc(SCC(=O)N(C)C)c2c1Cl` [2-((5-chloro-6-methylthieno[2,3-d]pyrimidin-4-yl)thio)-N,N-dimethylacetamide], the pIC50 in assay [1] was greater than 7.60. The pEC50 in assay [2] is greater than 6.00.

The compound `Cc1sc2ncnc(SCC(=O)NCCC#N)c2c1Cl` [2-((5-chloro-6-methylthieno[2,3-d]pyrimidin-4-yl)thio)-N-(2-cyanoethyl)acetamide] showed a pIC50 in assay [1] greater than 7.60. Also, in assay [2], the pEC50 is greater than 6.00.

As to `Cc1sc2ncnc(SCC(=O)NCCN3CCOCC3)c2c1Cl` [2-((5-chloro-6-methylthieno[2,3-d]pyrimidin-4-yl)thio)-N-(2-morpholinoethyl)acetamide], the pIC50 in assay [1] is greater than 7.60. The same compound had a negative-log EC50 (pEC50) in assay [2] greater than 6.00.

In assay [1], `Cc1sc2ncnc(SCC(=O)NCC#N)c2c1Cl` [2-((5-chloro-6-methylthieno[2,3-d]pyrimidin-4-yl)thio)-N-(cyanomethyl)acetamide] gave a negative logarithm of the IC50 (pIC50) greater than 7.60. The same compound showed a pEC50 in assay [2] greater than 6.00.

In assay [1], `Cc1sc2ncnc(SCC(=O)NCc3ccco3)c2c1Cl` [2-((5-chloro-6-methylthieno[2,3-d]pyrimidin-4-yl)thio)-N-(furan-2-ylmethyl)acetamide] gave a pIC50 greater than 7.60. Moreover, in assay [2], the pEC50 is greater than 6.00.

For the compound `CCNC(=O)CSc1ncnc2sc(C)c(Cl)c12` [2-((5-chloro-6-methylthieno[2,3-d]pyrimidin-4-yl)thio)-N-ethylacetamide], in assay [1], the pIC50 is greater than 7.60. In assay [2], the pEC50 is greater than 6.00.

Take `CCCc1sc2ncnc(SCC(=O)O)c2c1Cl` [2-((5-chloro-6-propylthieno[2,3-d]pyrimidin-4-yl)thio)acetic acid]: the pIC50 in assay [1] was greater than 7.60. Also, the pEC50 in assay [2] is greater than 6.00.

Regarding `Cc1sc2ncnc(SCC(=O)O)c2c1C1CC1` [2-((5-cyclopropyl-6-methylthieno[2,3-d]pyrimidin-4-yl)thio)acetic acid], in assay [1], the pIC50 was greater than 7.60. In assay [2], this compound had a negative-log EC50 (pEC50) greater than 5.30.

Turning to `O=C(O)CSc1ncnc2sc3c(c12)CCC3` [2-((6,7-dihydro-5H-cyclopenta[4,5]thieno[2,3-d]pyrimidin-4-yl)thio)acetic acid], the pIC50 in assay [1] is greater than 7.60. Moreover, the pEC50 in assay [2] was greater than 5.30.

In the case of `Cc1c(Br)sc2ncnc(SCC(=O)O)c12` [2-((6-bromo-5-methylthieno[2,3-d]pyrimidin-4-yl)thio)acetic acid], the negative logarithm of the IC50 (pIC50) in assay [1] is greater than 7.60. This compound had a negative-log EC50 (pEC50) in assay [2] greater than 6.00.

`Cc1c(Cl)sc2c(SCC(=O)NCCC#N)ncnc12` [2-((6-chloro-7-methylthieno[3,2-d]pyrimidin-4-yl)thio)-N-(2-cyanoethyl)acetamide] gave a pIC50 in assay [1] greater than 7.60. This compound showed a pEC50 in assay [2] greater than 6.00.

`COCCNC(=O)CSc1ncnc2c(C)c(Cl)sc12` [2-((6-chloro-7-methylthieno[3,2-d]pyrimidin-4-yl)thio)-N-(2-methoxyethyl)acetamide] showed a pIC50 in assay [1] greater than 7.60. For the same compound, the pEC50 in assay [2] was greater than 6.00.

In turn, `Cc1c(Cl)sc2c(SCC(=O)NCC#N)ncnc12` [2-((6-chloro-7-methylthieno[3,2-d]pyrimidin-4-yl)thio)-N-(cyanomethyl)acetamide] gave a pIC50 in assay [1] greater than 7.60. This compound also gave a pEC50 in assay [2] greater than 6.00.

`CCNC(=O)CSc1ncnc2c(C)c(Cl)sc12` [2-((6-chloro-7-methylthieno[3,2-d]pyrimidin-4-yl)thio)-N-ethylacetamide] had a negative-log IC50 (pIC50) in assay [1] greater than 7.60. In assay [2], this compound showed a pEC50 greater than 6.00.

`Cc1cc2c(SCC(=O)O)ncnc2s1` [2-((6-methylthieno[2,3-d]pyrimidin-4-yl)thio)acetic acid] gave a negative-log IC50 (pIC50) in assay [1] greater than 6.60. The compound further showed a pEC50 in assay [2] greater than 5.00.

`Cc1sc2c(SCC(=O)O)ncnc2c1C1CC1` [2-((7-cyclopropyl-6-methylthieno[3,2-d]pyrimidin-4-yl)thio)acetic acid] gave a pIC50 in assay [1] greater than 7.60. In addition, the negative logarithm of the EC50 (pEC50) in assay [2] was greater than 6.00.

In the case of `Cc1csc2c(SCC(=O)O)ncnc12` [2-((7-methylthieno[3,2-d]pyrimidin-4-yl)thio)acetic acid], the negative-log IC50 (pIC50) in assay [1] was greater than 6.60. Moreover, in assay [2], the pEC50 was greater than 4.82.

For the compound `Cc1sc2ncnc(SCC(=O)NCCc3cn[nH]c3)c2c1Cl` [N-(2-(1H-pyrazol-4-yl)ethyl)-2-((5-chloro-6-methylthieno[2,3-d]pyrimidin-4-yl)thio)acetamide], in assay [1], the pIC50 was greater than 7.30. Besides, the negative-log EC50 (pEC50) in assay [2] was greater than 6.00.

For `Cc1sc2ncnc(SCC(=O)NC#N)c2c1C` [N-cyano-2-((5,6-dimethylthieno[2,3-d]pyrimidin-4-yl)thio)acetamide], the pIC50 in assay [1] was greater than 7.60. This compound also showed a pEC50 in assay [2] greater than 6.00.

For the compound `CCCCOC(=O)CSc1ncnc2sc(C)c(C)c12` [butyl 2-((5,6-dimethylthieno[2,3-d]pyrimidin-4-yl)thio)acetate], the pIC50 in assay [1] is greater than 7.60. The compound also gave a pEC50 in assay [2] greater than 6.00.

In turn, `Cc1sc2ncnc(SCC(=O)OC(C)C)c2c1C` [isopropyl 2-((5,6-dimethylthieno[2,3-d]pyrimidin-4-yl)thio)acetate] had a negative-log IC50 (pIC50) in assay [1] greater than 7.60. Also, in assay [2], the pEC50 was greater than 6.00.

In assay [1], `Cc1sc2ncnc(SCC(=O)OC(C)C)c2c1Cl` [isopropyl 2-((5-chloro-6-methylthieno[2,3-d]pyrimidin-4-yl)thio)acetate] had a pIC50 greater than 7.60. The same compound showed a negative logarithm of the EC50 (pEC50) in assay [2] greater than 6.00.

In turn, `COC(=O)CSc1ncnc2sc(C)c(C)c12` [methyl 2-((5,6-dimethylthieno[2,3-d]pyrimidin-4-yl)thio)acetate] had a pIC50 in assay [1] greater than 7.60. The compound also showed a pEC50 in assay [2] greater than 6.00.

In assay [1], `COC(=O)CSc1ncnc2c(C)c(Cl)sc12` [methyl 2-((6-chloro-7-methylthieno[3,2-d]pyrimidin-4-yl)thio)acetate] showed a negative logarithm of the IC50 (pIC50) greater than 7.60. Also, the negative logarithm of the EC50 (pEC50) in assay [2] is greater than 6.00.

`CCCOC(=O)CSc1ncnc2sc(C)c(C)c12` [propyl 2-((5,6-dimethylthieno[2,3-d]pyrimidin-4-yl)thio)acetate]: the negative-log IC50 (pIC50) in assay [1] was greater than 7.60. The pEC50 in assay [2] was greater than 6.00.
